Molecular target: human Nav1.7 (Homo sapiens (Human), UniProt Q15858)
Experiment: FLIPR or FLIPR TETRA sodium dye assay for sodium channel blocking activity
Type: cell-based
Conditions: recombinant HEK293 cells expressing human Nav1.7
Experimental: In vitro assays were performed in a recombinant cell line expressing cDNA encoding the alpha subunit (Nav1.7, SCN9a, PN1, NE) of human Nav1.7 (Accession No. NM_002977). The cell line was provided by investigators at Yale University (Cummins et al, J. Neurosci. 18(23): 9607-9619 (1998)). For dominant selection of the Nav1.7-expressing clones, the expression plasmid co-expressed the neomycin resistance gene. The cell line was constructed in the human embryonic kidney cell line, HEK293, under the influence of the CMV […] promoter, and stable clones were selected using limiting dilution cloning and antibiotic selection using the neomycin analogue, G418. Recombinant beta and gamma subunits were not introduced into this cell line. Additional cell lines expressing recombinant Nav1.7 cloned from other species can also be used, alone or in combination with various beta subunits, gamma subunits or chaperones.
Unless otherwise noted, cell culture reagents were purchased from Mediatech of Herndon, Va. The recombinant Nav1.7/HEK293 cells were routinely cultured in growth medium consisting of Dulbecco's […] essential medium containing 10% fetal bovine serum (FBS, Hyclone, Thermo Fisher Scientific, Logan, Utah), 100 U/mL penicillin, 100 μg/mL streptomycin, 2-4 mM L-glutamine, and […] G418. For natural, non-recombinant cell lines, the selective antibiotic was omitted, and additional media formulations can be applied as needed.
The final buffer consisted of 20 mM Hepes, pH 7.3, 1.261 mM CaCl2, 0.493 mM MgCl2, 0.407 mM Mg(SO)4, 5.33 mM KCl, 0.441 mM KH2PO4, 137 mM NaCl, 0.336 mM Na2HPO4 and […] D-glucose (Hanks et al., Proc. Soc. Exp. Biol. Med. 71:196 (1949)), and the simple formulation was typically the basic buffer throughout the assay (i.e., all wash and addition steps).
The fluorescence indicator used in the primary fluorescence assay was the cell permeant version of CoroNa™ Green (Invitrogen, Molecular Probes, Eugene, Oreg.), a dye that emits light in the fluorescence range (Harootunian et al., J. Biol. Chem. 264(32):19458-19467 (1989)). The intensity of this emission, but not the wavelength range, is increased when the dye is exposed to Na^+ ions, which it can bind with partial selectivity. Cells expressing Nav1.7 or other sodium channels were loaded with the CoroNa™ Green dye immediately in advance of the fluorescence assay, and then, after agonist stimulation, the mobilization of Na^+ ions was detected as the Na^+ ions flowed from the extracellular fluid into the cytoplasm through the activated sodium channel pores. The dye was stored in the dark as a lyophilized powder, and then an aliquot was dissolved immediately before the cell loading procedure, according to the instructions of the manufacturer, to a stock concentration of 10 mM in DMSO. It was then diluted in the assay buffer to a 4× concentrated working solution, so that the final concentration of dye in the cell loading buffer was 5 μM.
In the fluorescence assays, two agonists were used in combination, namely 1) veratridine; and 2) the venom from the yellow scorpion, Leiurus quinquestriatus hebraeus. Veratridine is an alkaloid small molecule that facilitates the capture of channel openings by inhibiting inactivation, and the scorpion venom is a natural preparation that includes peptide toxins selective for different subsets of voltage-gated sodium channels. These scorpion toxins inhibit the fast inactivation of their cognate target channels. Stock solutions of the agonists were prepared to 40 mM in DMSO (veratridine) and 1 mg/mL in dH2O (scorpion venom), and then diluted to make a 4× or 2× stock (depending on the particular assay) in assay buffer, the final concentration being 100 μM (veratridine) and 10 μg/mL (scorpion venom). Both of the agonists were purchased from Sigma Aldrich, St. Louis, Mo.
Test compounds were dissolved in DMSO to yield 10 mM stock solutions. […]

Sequence of human Nav1.7 (Q15858 other isoform, or with tags, fused parts or gaps): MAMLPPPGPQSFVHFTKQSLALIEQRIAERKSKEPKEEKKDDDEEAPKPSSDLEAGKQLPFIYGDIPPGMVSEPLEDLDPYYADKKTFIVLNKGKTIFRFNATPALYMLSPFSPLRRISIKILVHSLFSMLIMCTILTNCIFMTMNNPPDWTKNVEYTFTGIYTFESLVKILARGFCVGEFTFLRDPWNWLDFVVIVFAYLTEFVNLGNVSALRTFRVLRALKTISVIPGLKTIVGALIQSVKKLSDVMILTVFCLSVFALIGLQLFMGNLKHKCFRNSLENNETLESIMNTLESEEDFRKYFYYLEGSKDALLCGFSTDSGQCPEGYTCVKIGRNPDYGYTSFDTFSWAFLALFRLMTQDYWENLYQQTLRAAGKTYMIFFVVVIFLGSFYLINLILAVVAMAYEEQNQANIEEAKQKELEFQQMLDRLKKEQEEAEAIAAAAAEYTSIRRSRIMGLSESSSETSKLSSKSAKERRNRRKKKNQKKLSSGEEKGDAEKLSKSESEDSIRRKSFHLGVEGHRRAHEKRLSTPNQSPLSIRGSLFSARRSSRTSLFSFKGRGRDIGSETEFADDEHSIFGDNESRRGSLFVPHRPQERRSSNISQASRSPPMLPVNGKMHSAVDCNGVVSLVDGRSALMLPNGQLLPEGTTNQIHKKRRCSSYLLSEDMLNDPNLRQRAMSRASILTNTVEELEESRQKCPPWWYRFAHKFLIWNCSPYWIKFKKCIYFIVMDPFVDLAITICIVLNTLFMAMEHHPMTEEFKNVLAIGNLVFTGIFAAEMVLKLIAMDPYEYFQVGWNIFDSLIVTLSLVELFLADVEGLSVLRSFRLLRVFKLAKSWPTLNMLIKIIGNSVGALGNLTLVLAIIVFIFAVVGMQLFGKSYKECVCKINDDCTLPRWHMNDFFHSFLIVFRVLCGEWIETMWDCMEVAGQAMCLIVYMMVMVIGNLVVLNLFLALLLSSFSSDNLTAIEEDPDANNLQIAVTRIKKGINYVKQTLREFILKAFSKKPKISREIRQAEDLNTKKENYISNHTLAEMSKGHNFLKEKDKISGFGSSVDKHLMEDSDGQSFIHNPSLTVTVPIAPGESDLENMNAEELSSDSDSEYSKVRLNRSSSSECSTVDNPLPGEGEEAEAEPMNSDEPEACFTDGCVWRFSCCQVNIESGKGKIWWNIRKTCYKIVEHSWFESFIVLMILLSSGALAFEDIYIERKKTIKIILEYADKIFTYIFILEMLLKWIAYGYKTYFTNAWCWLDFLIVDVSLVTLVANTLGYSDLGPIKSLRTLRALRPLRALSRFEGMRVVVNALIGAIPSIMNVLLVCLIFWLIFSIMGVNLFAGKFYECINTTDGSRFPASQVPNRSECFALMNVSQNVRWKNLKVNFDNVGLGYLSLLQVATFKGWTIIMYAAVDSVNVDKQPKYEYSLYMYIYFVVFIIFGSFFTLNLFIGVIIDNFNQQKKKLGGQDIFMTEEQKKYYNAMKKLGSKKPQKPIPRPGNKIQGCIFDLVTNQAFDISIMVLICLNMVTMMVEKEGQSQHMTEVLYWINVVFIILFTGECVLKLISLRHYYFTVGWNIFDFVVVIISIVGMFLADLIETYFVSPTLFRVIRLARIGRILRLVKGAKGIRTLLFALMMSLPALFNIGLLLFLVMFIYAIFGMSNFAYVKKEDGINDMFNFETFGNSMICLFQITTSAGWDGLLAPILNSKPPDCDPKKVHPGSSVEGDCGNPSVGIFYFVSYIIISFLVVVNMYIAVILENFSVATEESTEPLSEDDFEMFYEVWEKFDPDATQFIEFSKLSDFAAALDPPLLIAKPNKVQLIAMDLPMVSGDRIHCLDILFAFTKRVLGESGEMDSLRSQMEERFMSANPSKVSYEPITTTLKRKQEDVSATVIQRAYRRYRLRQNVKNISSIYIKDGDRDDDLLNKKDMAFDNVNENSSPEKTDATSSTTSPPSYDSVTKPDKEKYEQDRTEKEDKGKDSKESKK

First: O=C(Nc1ccc(C(F)(F)F)cc1)c1cc(N[C@H]2CCNC2=O)cc(-c2ccc3[nH]ccc3c2)n1 [Compound 88, (S)-6-(1H-indol-5-yl)-4-((2-oxopyrrolidin-3-yl)amino)-N-(4-(trifluoromethyl)phenyl)picolinamide]
Second: O=C(Nc1ccc(C(F)(F)F)cc1)c1cccc(-c2ccc3[nH]cc(C(=O)O)c3c2)n1 [Compound 139, 5-(6-((4-(trifluoromethyl)phenyl)carbamoyl)pyridin-2-yl)-1H-indole-3-carboxylic acid]
The IC50 of the first is lower: 4.89 ± 0.388 µM for the first, > 20 µM for the second. The first is the more potent here.

`OC[C@@H](O)c1cccc(-c2ccc3nn(Cc4ccc(C(F)(F)F)cc4)cc3c2)n1` [Compound 108, (S)-1-(6-(2-(4-(trifluoromethyl)benzyl)-2H-indazol-5-yl)pyridin-2-yl)ethane-1,2-diol] and `OC[C@@H](O)c1cccc(-c2ccc3c(c2)ncn3Cc2ccc(C(F)(F)F)cc2)n1` [Compound 110, (S)-1-(6-(1-(4-(trifluoromethyl)benzyl)-1H-benzo[d]imidazol-5-yl)pyridin-2-yl)ethane-1,2-diol] are within 1.5-fold of each other in IC50: 4.68 ± 0.412 µM for the first, 3.44 ± 0.712 µM for the second.

First: OC[C@@H](O)c1cccc(-c2ccc3c(ccn3Cc3ccc(C(F)(F)F)cc3)c2)n1 [Compound 109, (S)-1-(6-(1-(4-(trifluoromethyl)benzyl)-1H-indol-5-yl)pyridin-2-yl)ethane-1,2-diol]
Second: NC(=O)[C@H](O)[C@@H](O)c1cccc(-c2ccc3c(ccn3Cc3ccc(C(F)(F)F)cc3)c2)n1 [Compound 151, (2R,3S)-2,3-dihydroxy-3-(6-(1-(4-(trifluoromethyl)benzyl)-1H-indol-5-yl)pyridin-2-yl)propanamide]
The IC50 of the first is 4.4-fold lower: 0.177 ± 0.005 µM for the first, 0.773 ± 0.09 µM for the second. The first is the more potent here.

Compared with `O=S(=O)(N1CCCCC1)n1ccc2cc(-c3cccc([C@H](O)CO)n3)ccc21` [Compound 111, (S)-1-(6-(1-(piperidin-1-ylsulfonyl)-1H-indol-5-yl)pyridin-2-yl)ethane-1,2-diol], `NC(=O)[C@H](O)[C@@H](O)c1cccc(-c2ccc3c(ccn3CC3CCCCC3)c2)n1` [Compound 152, (2R,3S)-3-(6-(1-(cyclohexylmethyl)-1H-indol-5-yl)pyridin-2-yl)-2,3-dihydroxypropanamide] is 1.8-fold lower in IC50: 0.716 ± 0.073 µM for the first, 0.402 ± 0.032 µM for the second.

Going from `C[C@H](Nc1cc(C(N)=O)nc(-c2ccc3c(ccn3Cc3ccc(C(F)(F)F)cc3)c2)n1)C(N)=O` [Compound 112, (S)-6-((1-amino-1-oxopropan-2-yl)amino)-2-(1-(4-(trifluoromethyl)benzyl)-1H-indol-5-yl)pyrimidine-4-carboxamide] to `NC(=O)c1csc(-c2ccc3c(ccn3Cc3ccc(C(F)(F)F)cc3)c2)n1` [Compound 156, 2-(1-(4-(trifluoromethyl)benzyl)-1H-indol-5-yl)thiazole-4-carboxamide], the IC50 falls from 4.12 ± 0.525 µM to 0.173 ± 0.018 µM (24-fold).

First: C[C@H](Nc1cc(C(N)=O)nc(-c2ccc3c(ccn3CC3CCCCC3)c2)n1)C(N)=O [Compound 113, (S)-6-((1-amino-1-oxopropan-2-yl)amino)-2-(1-(cyclohexylmethyl)-1H-indol-5-yl)pyrimidine-4-carboxamide]
Second: NC(=O)c1cccc(-c2ccc3c(c2)c(CN[C@H]2CCNC2=O)cn3CC2CCCCC2)n1 [Compound 145, (S)-6-(1-(cyclohexylmethyl)-3-(((2-oxopyrrolidin-3-yl)amino)methyl)-1H-indol-5-yl)picolinamide]
The IC50 of the first is lower: 4.43 ± 0.541 µM for the first, 10 to 20 µM for the second. The first is the more potent here.

Going from `N#Cc1cc([C@@H](O)CO)cc(-c2ccc3c(ccn3Cc3ccc(C(F)(F)F)cc3)c2)n1` [Compound 119, (R)-4-(1,2-dihydroxyethyl)-6-(1-(4-(trifluoromethyl)benzyl)-1H-indol-5-yl)picolinonitrile] to `NC(=O)c1cc([C@H](O)CO)cc(-c2ccc3c(ccn3Cc3ccc(C(F)(F)F)cc3)c2)n1` [Compound 121, (S)-4-(1,2-dihydroxyethyl)-6-(1-(4-(trifluoromethyl)benzyl)-1H-indol-5-yl)picolinamide], the IC50 falls from 5.09 ± 0.356 µM to 2.37 ± 0.364 µM (2.1-fold). The second is the more potent here.

Compared with `NC(=O)c1cc(-c2ccc3c(ccn3Cc3ccc(C(F)(F)F)cc3)c2)cc([C@@H](O)CO)n1` [Compound 122, (R)-6-(1,2-dihydroxyethyl)-4-(1-(4-(trifluoromethyl)benzyl)-1H-indol-5-yl)picolinamide], `CC(C)Cn1ccc2cc(-c3cc(C(N)=O)nc([C@H](O)CO)c3)ccc21` [Compound 126, (S)-6-(1,2-dihydroxyethyl)-4-(1-isobutyl-1H-indol-5-yl)picolinamide] is 3.4-fold higher in IC50: 1.74 ± 0.214 µM for the first, 5.91 ± 0.536 µM for the second.

Compared with `CC(C)Cn1ccc2cc(-c3cc([C@H](O)CO)cc(C(N)=O)n3)ccc21` [Compound 124, (S)-4-(1,2-dihydroxyethyl)-6-(1-isobutyl-1H-indol-5-yl)picolinamide], `CC(C)Cn1ccc2cc(-c3cc([C@@H](O)CO)cc(C(N)=O)n3)ccc21` [Compound 125, (R)-4-(1,2-dihydroxyethyl)-6-(1-isobutyl-1H-indol-5-yl)picolinamide] is higher in IC50: 4.92 ± 0.7 µM for the first, > 20 µM for the second. The first is the more potent here.

Compared with `Cn1cc(-c2cccc(C(F)(F)F)c2)c2cc(-c3cccc(C(N)=O)n3)ccc21` [Compound 129, 6-(1-methyl-3-(3-(trifluoromethyl)phenyl)-1H-indol-5-yl)picolinamide], `Cn1cc(-c2ccc(C(F)(F)F)cc2)c2cc(-c3cccc(C(N)=O)n3)ccc21` [Compound 130, 6-(1-methyl-3-(4-(trifluoromethyl)phenyl)-1H-indol-5-yl)picolinamide] is higher in IC50: 10 to 20 µM for the first, > 20 µM for the second. The first is the more potent here.

`CCN(CC)CCn1cc(-c2ccc(F)cc2)c2ccc(-c3cccc(C(N)=O)n3)cc21` [Compound 131, 6-(1-(2-(diethylamino)ethyl)-3-(4-fluorophenyl)-1H-indol-6-yl)picolinamide] and `NC(=O)c1cccc(-c2ccc3c(c2)c(C(N)=O)cn3Cc2ccc(C(F)(F)F)cc2)n1` [Compound 142, 5-(6-carbamoylpyridin-2-yl)-1-(4-(trifluoromethyl)benzyl)-1H-indole-3-carboxamide] cannot be ordered by IC50: > 20 µM for the first, > 20 µM for the second.

Going from `Nc1cc(C(=O)Nc2ccc(C(F)(F)F)cc2)nc(-c2ccc3occc3c2)n1` [Compound 138, 6-amino-2-(benzofuran-5-yl)-N-(4-(trifluoromethyl)phenyl)pyrimidine-4-carboxamide] to `NC(=O)c1c[nH]c2ccc(-c3cccc(C(=O)Nc4ccc(C(F)(F)F)cc4)n3)cc12` [Compound 140, 5-(6-((4-(trifluoromethyl)phenyl)carbamoyl)pyridin-2-yl)-1H-indole-3-carboxamide], the IC50 rises from 3.66 ± 2.4 µM to > 20 µM. The first is the more potent here.

`NC(=O)CC[C@H](NC(=O)c1c[nH]c2ccc(-c3cccc(C(=O)Nc4ccc(C(F)(F)F)cc4)n3)cc12)C(N)=O` [Compound 141, (S)-2-(5-(6-((4-(trifluoromethyl)phenyl)carbamoyl)pyridin-2-yl)-1H-indole-3-carboxamido)pentanediamide] and `C[C@H](NC(=O)c1cn(Cc2ccc(C(F)(F)F)cc2)c2ccc(-c3cccc(C(N)=O)n3)cc12)C(N)=O` [Compound 143, (S)-N-(1-amino-1-oxopropan-2-yl)-5-(6-carbamoylpyridin-2-yl)-1-(4-(trifluoromethyl)benzyl)-1H-indole-3-carboxamide] cannot be ordered by IC50: > 20 µM for the first, > 20 µM for the second.

`NC(=O)c1cccc(-c2ccc3c(c2)c(CN[C@H]2CCNC2=O)cn3Cc2ccc(C(F)(F)F)cc2)n1` [Compound 144, (S)-6-(3-(((2-oxopyrrolidin-3-yl)amino)methyl)-1-(4-(trifluoromethyl)benzyl)-1H-indol-5-yl)picolinamide] and `CC(C)Cn1ccc2cc(-c3cccc([C@H](O)[C@@H](O)C(N)=O)n3)ccc21` [Compound 153, (2R,3S)-2,3-dihydroxy-3-(6-(1-isobutyl-1H-indol-5-yl)pyridin-2-yl)propanamide] are within error of each other in IC50: 2.54 ± 0.181 µM for the first, 2.62 ± 0.071 µM for the second.

— patent publication US10730866B2, “Indole derivatives and use thereof” (Purdue Pharma L.P., priority 2014, dated 2020)
